Assay results published in ChEMBL document CHEMBL1201862, “PubChem BioAssay data set” (2004).
Calls of active or inactive are those of the source.

How the values were obtained:
[1] = test system: HEK293; assay: NOD2 signaling inhibitors in MDP-stimulated cells, cell-based, uHTS, luminescence (AID 2001); format: functional; settings: Homo sapiens
[2] = test system: Vero; assay: host cell cytotoxicity of antiviral hits, dose response, cytotoxicity control for West Nile virus antiviral project, secondary assay (AID 1650); format: functional; settings: Chlorocebus sabaeus
[3] = test system: HEK293; assay: cells; format: functional, cell-based; settings: Homo sapiens
[4] = cytotoxicity in HEK-293T cells, dose response, cytotoxicity control for TCR NF-kB inhibitor project, luminescence, T-cell screen hits (AID 489026); format: functional, cell-based;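 note: cells exposed to compound about 14 hours before the viability readout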
[5] = target: Beta-galactosidase (Escherichia coli, UniProt Q8VNN2); assay: PubChem AID 485352; format: functional
Sequence of Beta-galactosidase (Q8VNN2 whole entry): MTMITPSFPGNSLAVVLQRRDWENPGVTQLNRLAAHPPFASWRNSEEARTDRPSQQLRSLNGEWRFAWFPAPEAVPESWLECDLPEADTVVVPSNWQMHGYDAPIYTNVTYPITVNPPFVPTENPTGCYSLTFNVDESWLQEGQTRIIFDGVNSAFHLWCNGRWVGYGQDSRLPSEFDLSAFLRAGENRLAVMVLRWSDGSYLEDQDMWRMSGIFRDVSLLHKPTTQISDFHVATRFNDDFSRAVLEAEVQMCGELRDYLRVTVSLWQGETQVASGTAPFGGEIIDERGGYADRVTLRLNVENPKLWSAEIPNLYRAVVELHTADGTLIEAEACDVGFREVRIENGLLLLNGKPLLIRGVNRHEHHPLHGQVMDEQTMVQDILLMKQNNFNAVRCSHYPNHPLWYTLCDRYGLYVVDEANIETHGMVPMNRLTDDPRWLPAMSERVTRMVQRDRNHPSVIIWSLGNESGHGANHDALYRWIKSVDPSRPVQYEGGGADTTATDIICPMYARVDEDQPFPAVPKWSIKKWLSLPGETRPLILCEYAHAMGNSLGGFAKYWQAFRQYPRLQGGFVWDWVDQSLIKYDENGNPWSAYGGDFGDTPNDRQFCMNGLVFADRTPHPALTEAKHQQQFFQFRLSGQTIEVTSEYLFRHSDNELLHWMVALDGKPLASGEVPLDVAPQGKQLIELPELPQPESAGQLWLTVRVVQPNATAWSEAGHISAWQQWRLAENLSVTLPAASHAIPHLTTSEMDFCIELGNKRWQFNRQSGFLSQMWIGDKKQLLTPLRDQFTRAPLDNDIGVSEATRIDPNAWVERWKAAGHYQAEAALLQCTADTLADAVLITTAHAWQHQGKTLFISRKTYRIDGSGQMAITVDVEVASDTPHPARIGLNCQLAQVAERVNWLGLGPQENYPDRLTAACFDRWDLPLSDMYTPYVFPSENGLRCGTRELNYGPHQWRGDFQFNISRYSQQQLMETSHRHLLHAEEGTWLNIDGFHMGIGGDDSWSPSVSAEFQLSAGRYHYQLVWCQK

[6] = test system: HEK293; assay: NOD1 signaling inhibitors, primary screen, cell-based, luminescence, uHTS (AID 1578); format: functional; settings: Homo sapiens
[7] = test system: INS1; assay: beta cell apoptosis inhibitors, cytokine rescue, dose response, luminescence, retest (AID 449756); format: functional, cell-based; settings: Rattus norvegicus;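 note: cell death triggered by IL-1 beta plus TNF-alpha plus IFN-gamma mixture; protective hits raise ATP signal compared with cytokine alone wells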
[8] = NIH-3T3 fibroblast cytotoxicity, dose response, cytotoxicity control, cell-based, fluorescence, Alamar Blue, secondary assay (AID 2327); format: functional;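 note: NIH-3T3 mouse fibroblasts cultured with fluconazole at 8 µg/mL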
[9] = test system: HEK293; assay: cells; format: functional, cell-based; settings: Homo sapiens; remark: listed apart in the source
[10] = target: Nucleotide-binding oligomerization domain-containing protein 2 (Homo sapiens, UniProt Q9HC29); assay: NOD2 signaling inhibitors, cell-based, luminescence, uHTS, HEK293 (AID 1566); format: functional
Sequence of Nucleotide-binding oligomerization domain-containing protein 2 (Q9HC29 whole entry, the tested form may be a part): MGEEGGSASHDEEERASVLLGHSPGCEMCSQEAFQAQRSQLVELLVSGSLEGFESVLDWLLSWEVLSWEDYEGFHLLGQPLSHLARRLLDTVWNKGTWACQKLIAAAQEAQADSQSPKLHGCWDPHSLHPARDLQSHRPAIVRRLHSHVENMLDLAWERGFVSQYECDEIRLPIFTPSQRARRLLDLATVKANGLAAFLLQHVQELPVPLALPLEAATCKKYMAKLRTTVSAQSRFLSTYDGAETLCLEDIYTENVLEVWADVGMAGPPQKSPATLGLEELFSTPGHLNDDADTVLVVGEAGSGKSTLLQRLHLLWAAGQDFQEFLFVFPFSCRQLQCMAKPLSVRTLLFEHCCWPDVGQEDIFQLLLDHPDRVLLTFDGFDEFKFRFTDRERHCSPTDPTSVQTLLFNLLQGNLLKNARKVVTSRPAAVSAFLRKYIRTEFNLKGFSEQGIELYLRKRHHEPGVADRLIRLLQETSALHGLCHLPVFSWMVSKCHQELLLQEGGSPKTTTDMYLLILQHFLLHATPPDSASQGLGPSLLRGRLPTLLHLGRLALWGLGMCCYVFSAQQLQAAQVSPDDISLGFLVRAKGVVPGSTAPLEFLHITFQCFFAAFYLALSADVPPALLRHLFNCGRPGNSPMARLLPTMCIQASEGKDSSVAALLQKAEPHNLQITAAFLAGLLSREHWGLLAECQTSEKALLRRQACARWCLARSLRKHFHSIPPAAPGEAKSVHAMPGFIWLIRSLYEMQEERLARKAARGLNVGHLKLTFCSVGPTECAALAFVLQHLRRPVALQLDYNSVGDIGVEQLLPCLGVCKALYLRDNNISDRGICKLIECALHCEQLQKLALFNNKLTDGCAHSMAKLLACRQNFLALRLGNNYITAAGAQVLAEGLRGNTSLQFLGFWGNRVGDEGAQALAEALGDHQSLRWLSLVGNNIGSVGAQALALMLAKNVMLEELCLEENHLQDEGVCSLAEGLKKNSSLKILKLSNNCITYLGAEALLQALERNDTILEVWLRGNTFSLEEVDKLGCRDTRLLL

[11] = test system: HEK293; assay: cells; format: functional, cell-based; settings: Homo sapiens; remark: listed apart in the source
[12] = C. albicans growth with fluconazole, confirmation, fluorescence, retest (AID 2467); format: functional, cell-based
[13] = target: T1, Type-1 angiotensin II receptor (Homo sapiens, UniProt P30556); assay: AT1 receptor antagonists, dose response, selectivity assay for APJ receptor antagonist project, cell-based, uHTS hits (AID 463214); format: functional;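 note: antagonist potency against angiotensin II stimulated AT1 response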
T1 sequence (P30556 whole entry): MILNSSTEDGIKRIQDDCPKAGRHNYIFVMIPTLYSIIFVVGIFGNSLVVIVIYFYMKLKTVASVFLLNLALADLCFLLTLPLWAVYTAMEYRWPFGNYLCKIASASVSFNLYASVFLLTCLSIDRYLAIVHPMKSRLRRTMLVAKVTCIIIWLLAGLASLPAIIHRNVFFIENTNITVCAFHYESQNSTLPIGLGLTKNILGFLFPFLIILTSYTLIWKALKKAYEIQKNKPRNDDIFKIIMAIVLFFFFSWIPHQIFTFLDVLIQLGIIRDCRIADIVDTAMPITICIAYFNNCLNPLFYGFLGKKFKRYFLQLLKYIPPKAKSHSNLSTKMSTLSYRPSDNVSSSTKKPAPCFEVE

[14] = target: T2, Short transient receptor potential channel 4 (Mus musculus, UniProt Q9QUQ5); assay: mouse TRPC4 channel activators, dose response, cell-based, HEK293 TRPC4/mu-opioid, Fluo-4 calcium (AID 434937); format: functional
T2 sequence (Q9QUQ5 whole entry): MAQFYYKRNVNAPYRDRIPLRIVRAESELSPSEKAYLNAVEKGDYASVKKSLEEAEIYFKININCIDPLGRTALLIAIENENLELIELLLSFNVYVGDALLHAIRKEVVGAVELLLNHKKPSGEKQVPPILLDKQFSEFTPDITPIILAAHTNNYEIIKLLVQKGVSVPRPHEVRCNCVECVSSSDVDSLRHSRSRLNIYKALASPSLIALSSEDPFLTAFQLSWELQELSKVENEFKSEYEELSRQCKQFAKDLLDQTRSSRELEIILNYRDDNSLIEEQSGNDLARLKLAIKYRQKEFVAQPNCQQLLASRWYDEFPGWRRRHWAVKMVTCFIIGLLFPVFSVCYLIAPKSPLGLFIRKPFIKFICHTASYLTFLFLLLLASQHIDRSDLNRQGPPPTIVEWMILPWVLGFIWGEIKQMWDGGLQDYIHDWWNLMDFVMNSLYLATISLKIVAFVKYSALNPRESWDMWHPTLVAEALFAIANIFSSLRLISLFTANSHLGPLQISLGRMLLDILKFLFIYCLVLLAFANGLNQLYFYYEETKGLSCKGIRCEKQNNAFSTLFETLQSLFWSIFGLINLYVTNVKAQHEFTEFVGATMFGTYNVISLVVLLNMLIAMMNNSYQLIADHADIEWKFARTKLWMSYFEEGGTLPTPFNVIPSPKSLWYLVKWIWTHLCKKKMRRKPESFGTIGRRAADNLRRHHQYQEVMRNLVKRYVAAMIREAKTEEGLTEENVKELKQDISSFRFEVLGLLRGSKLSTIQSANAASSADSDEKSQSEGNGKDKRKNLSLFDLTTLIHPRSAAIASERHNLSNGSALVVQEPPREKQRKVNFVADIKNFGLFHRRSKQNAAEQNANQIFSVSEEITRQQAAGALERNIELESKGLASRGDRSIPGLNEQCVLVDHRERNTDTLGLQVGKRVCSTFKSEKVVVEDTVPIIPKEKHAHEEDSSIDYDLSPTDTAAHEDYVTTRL

[15] = test system: Vero; assay: cells; format: functional, cell-based; settings: Chlorocebus sabaeus
[16] = target: Cytochrome P450 2C19 (Homo sapiens, UniProt P33261); assay: Cytochrome panel assay with activity outcomes. Panel member name: p450-cyp2c19 Compounds with AC50 equal or less than 10 uM are considered active; format: functional; settings: read-out: AC50
Sequence of Cytochrome P450 2C19 (P33261 whole entry): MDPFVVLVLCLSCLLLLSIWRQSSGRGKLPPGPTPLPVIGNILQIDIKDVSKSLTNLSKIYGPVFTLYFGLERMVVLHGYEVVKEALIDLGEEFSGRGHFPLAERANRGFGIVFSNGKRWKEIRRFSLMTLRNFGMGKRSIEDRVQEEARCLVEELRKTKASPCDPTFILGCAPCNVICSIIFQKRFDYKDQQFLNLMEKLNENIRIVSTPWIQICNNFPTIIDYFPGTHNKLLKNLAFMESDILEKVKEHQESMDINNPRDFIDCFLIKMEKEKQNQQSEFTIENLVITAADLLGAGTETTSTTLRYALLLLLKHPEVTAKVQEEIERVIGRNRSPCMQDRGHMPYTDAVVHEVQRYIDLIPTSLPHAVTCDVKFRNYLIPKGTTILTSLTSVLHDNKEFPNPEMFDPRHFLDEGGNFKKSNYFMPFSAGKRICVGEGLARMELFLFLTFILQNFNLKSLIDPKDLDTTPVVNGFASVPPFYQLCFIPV

[17] = target: Cytochrome P450 2D6 (Homo sapiens, UniProt P10635);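 note: CYP2D6 member of a cytochrome P450 panel assay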
Sequence of Cytochrome P450 2D6 (P10635 whole entry): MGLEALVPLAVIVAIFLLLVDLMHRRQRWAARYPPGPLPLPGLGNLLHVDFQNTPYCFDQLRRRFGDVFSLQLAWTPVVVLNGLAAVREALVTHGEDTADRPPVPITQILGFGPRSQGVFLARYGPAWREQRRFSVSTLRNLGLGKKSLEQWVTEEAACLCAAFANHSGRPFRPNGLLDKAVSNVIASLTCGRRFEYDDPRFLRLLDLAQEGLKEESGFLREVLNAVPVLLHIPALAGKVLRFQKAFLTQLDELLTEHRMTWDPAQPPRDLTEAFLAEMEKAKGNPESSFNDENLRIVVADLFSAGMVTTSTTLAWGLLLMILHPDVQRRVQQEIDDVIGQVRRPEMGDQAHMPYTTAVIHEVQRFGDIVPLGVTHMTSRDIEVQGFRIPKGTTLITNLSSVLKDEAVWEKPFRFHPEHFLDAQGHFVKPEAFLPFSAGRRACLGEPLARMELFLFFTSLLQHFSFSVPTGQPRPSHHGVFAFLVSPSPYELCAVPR

[18] = target: T3, Protein RecA (Mycobacterium tuberculosis, UniProt P9WHJ3); assay: Fluorescence Cell-Free Homogeneous Dose Retest to Identify Inhibitors of RecA-Intein Splicing Activity. [Related pubchem assays (depositor defined):AID2097, AID2223, AID489010, AID492950]; format: functional
T3 sequence (P9WHJ3 whole entry): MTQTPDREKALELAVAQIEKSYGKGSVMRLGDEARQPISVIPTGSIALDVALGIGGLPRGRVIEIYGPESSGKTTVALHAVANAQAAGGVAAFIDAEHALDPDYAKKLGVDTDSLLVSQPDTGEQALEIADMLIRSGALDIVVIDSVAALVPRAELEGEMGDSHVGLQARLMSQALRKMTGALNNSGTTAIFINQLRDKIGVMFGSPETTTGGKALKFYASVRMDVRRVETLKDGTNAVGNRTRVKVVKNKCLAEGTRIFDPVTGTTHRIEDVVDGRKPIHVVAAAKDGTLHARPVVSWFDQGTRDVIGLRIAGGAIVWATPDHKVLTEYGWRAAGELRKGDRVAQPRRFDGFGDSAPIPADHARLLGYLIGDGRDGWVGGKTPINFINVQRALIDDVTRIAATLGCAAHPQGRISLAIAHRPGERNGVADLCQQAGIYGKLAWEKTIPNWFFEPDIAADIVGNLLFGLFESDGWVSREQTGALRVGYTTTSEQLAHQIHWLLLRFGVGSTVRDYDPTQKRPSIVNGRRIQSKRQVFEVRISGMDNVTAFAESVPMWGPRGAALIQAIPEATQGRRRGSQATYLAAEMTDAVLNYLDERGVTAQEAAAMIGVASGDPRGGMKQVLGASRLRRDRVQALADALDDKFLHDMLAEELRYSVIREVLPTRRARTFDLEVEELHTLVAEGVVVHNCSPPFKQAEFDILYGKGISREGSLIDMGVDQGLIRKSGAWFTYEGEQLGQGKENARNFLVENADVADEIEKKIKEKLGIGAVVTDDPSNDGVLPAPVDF

[19] = target: T4, Replicative DNA helicase DnaB (Mycobacterium tuberculosis, UniProt P9WMR3); assay: DnaB intein splicing inhibitors, dose response, biochemical, cell-free fluorescence (AID 449749); format: functional
T4 sequence (P9WMR3 whole entry): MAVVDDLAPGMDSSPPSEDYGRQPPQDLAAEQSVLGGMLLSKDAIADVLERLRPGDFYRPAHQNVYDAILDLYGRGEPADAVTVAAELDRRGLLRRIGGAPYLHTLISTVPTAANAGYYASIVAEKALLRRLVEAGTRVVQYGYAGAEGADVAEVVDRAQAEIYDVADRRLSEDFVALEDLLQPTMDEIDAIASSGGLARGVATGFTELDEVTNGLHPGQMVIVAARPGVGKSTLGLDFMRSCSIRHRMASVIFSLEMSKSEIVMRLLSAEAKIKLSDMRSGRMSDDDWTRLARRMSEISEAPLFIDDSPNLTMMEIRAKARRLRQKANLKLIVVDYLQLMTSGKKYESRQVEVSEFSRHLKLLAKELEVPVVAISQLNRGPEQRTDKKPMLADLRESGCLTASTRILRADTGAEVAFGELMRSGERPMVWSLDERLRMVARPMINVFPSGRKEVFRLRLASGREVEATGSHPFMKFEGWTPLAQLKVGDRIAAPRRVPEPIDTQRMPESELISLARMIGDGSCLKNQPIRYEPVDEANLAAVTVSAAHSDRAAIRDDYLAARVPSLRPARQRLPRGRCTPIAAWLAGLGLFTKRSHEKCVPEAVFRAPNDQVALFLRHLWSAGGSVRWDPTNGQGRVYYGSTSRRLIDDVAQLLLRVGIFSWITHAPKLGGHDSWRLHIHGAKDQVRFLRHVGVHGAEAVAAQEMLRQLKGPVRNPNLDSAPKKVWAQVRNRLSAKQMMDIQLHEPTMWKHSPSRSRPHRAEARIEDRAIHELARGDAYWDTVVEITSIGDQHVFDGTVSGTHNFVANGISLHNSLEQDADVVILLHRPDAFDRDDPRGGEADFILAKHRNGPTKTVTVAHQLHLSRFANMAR

[20] = test system: Vero; assay: cells; format: functional; settings: Chlorocebus sabaeus
[21] = target: T5, Cytochrome P450 1A2 (Homo sapiens, UniProt P05177);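 note: PubChem cytochrome P450 panel assay, CYP1A2 panel member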
T5 sequence (P05177 whole entry): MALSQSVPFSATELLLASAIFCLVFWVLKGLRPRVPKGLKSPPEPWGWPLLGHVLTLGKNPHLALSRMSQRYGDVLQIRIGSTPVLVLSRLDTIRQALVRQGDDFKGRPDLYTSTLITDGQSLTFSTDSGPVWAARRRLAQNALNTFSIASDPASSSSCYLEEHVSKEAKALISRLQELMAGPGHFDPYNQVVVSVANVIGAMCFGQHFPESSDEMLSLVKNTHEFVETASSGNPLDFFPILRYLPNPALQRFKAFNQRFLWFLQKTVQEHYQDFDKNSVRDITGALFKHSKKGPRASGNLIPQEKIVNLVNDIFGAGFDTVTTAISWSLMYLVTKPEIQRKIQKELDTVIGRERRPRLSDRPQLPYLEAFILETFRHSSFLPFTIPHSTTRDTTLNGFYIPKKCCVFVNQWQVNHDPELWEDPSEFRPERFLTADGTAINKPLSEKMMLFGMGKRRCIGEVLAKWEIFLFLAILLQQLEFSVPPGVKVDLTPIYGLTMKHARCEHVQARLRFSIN

Cc1ccc(C)c(N=Nc2ccc(O)c3ncccc23)c1
IC50 [1]: 3 µM (active)
CC50 [2]: 6.64 µM (active)
IC50 [3]: 1.89 µM (active)
IC50 [4]: > 80 µM (inactive)
EC50 [5]: > 40 µM (inactive)
EC50 [6]: 4.12 µM (active)
AC50 [7]: 1.29 µM (active)
EC50 [8]: 17 µM (active)
IC50 [9]: > 20 µM (inactive)
EC50 [10]: > 20 µM (inactive)
IC50 [11]: > 20 µM (inactive)
EC50 [12]: 1.57 µM (active)
IC50 [13]: 9.84 µM (active)

COc1ccc(C(=O)NC(=S)NNC(=O)CCc2ccccc2)cc1
EC50 [14]: 5.96 µM (active)
IC50 [15]: 24.6 µM (active)
AC50 [16]: 14.1 µM (inconclusive)
EC50 [8]: > 150 µM (inconclusive)
AC50 [17]: 15.8 µM (inconclusive)
EC50 [18]: > 380 µM (inactive)
EC50 [12]: 2.16 µM (active)
AC50 [19]: > 380 µM (inactive)
CC50 [20]: 24.2 µM (active)
AC50 [21]: 15.8 µM (inconclusive)
